Experimental findings from patent US5484940A, “Substituted 3-indolyl-5-pyrazolone compounds” (priority 1994, dated 1996) are described below.

The test system of one data set is human cortical neurons. In words: Inhibition of toxicity of β-amyloid peptide to human neuronal cells (alamarBlue). It counts as cell-based. The note with it: 50 μM β-amyloid peptide, 2-3 days; on average where more than one duplicate experiment; compound concentration not stated. The gist of the method:
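Primary human cortical neurons, cultured in MEM/B27, were exposed to test compound plus 50 μM β-amyloid peptide in MEM for 2-3 days at 37 °C. Neuronal survival was quantified by reduction of 10% alamarBlue in MEM (fluorometric/colorimetric metabolic indicator).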
(Resazurin is reduced to fluorescent resorufin, in cell work by metabolically active cells.)

Another data set relates to 293 751 SWE cells. Put plainly: Cytotoxicity (MTT) in 293 751 SWE cells. The class given is cell-based, human. The note with it: concentration not given. In outline:
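Used HEK293 cells stably expressing APP751 carrying the Swedish double mutation (K651N/M652L), plated at 1.5-2.5×10^4 cells/well in DMEM + 10% FBS. MTT was added to a final 1 mg/mL for 1 h at 37 °C, then lysed in SDS/DMF (pH 4.7) overnight. Viability was read as OD562 − OD650.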

The subject of data set [1] is β-amyloid peptide production. Put plainly: Cellular screen for inhibitors of β-amyloid production (ELISA, 293 751 SWE cells). It counts as cell-based, human. Particulars: 2 h pretreatment + 2 h, normalized for cytotoxicity (MTT), concentration not given. In outline: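 293 751 SWE cells (K293 stably expressing APP751 Swedish mutant) pretreated 2 h with compound, then fresh compound-containing medium for 2 h more at 37 °C. Secreted β-amyloid in conditioned medium quantified by sandwich ELISA (capture 266 anti-Aβ13-28, labelled 6C6 anti-Aβ1-16) against a standard curve as ng/mL; mean ± SD of ≥6 replicates.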

The subject of another data set is rat cortical neurons. Put plainly: Inhibition of toxicity of β-amyloid peptide to rat neuronal cells (alamarBlue). It counts as cell-based. Particulars: 10 to 20 μM β-amyloid peptide, 2-3 days; on average where more than one duplicate experiment; compound concentration not stated. The method, then: The purpose of this test is to determine the effect of 3-indolyl-5-pyrazolone compounds on the toxicity of β-amyloid peptide to neuronal cells.
Primary rat cortical cultures were established from 18 day rat fetuses. Cortical tissue was dissociated by incubation in a trypsin/EDTA solution (0.05% trypsin+0.53 mM EDTA in HBSS; GIBCO Laboratories, Grand Island, N.Y., USA) for 20 minutes at 37° C. The trypsin was then inactivated by resuspending the cells in serum-containing medium (DMEM/FBS): Dulbecco's Modified Eagles' Medium (DMEM) containing 4.5 g/L glucose, 1 mM sodium pyruvate, 1 mM glutamine, 100 Units/mL penicillin, 100 μg/mL streptomycin, and supplemented with 10% heat-inactivated fetal bovine serum (GIBCO Laboratories, Grand Island, N.Y., USA). Cells were then pelleted by centrifugation and resuspended in a chemically-defined medium (DMEM/B27: DMEM containing B27 supplement; GIBCO Laboratories, Grand Island, N.Y., USA) in place of FBS. Polyethyleneimine (PEI; Sigma Chemical Company, St. Louis, Mo., USA)-coated 6.4 mm (96-well) dishes were timed once with DMEM/FBS, and then seeded at 0.75 to 1.25×10^5 cells per well in 0.1 mL DMEM/B27. Cultures were maintained in a H2 O-saturated incubator with an atmosphere of 90% air/10% CO2 at 37° C. Cell viability was visually assessed by phase contrast microscopy and quantified by measuring the reduction of alamarBlue™ (Alamar biosciences, Inc., Sacramento, Calif., USA) as described below. Serum replacement with B27 supplement yields nearly pure neuronal cultures as judged by immunocytochemistry for glial fibrillary acidic protein and neuron-specific enolase (Brewer, et al.^20)
β-amyloid peptide stock solutions were prepared as 1 mM stocks in sterile, doubly distilled water immediately prior to addition to cultures. Rat cortical neurons were exposed to β-amyloid peptide by removing the culture medium and replacing it with DMEM/N2 (GIBCO Laboratories,Grand Island, N.Y., USA) containing 10 to 20 μM β-amyloid peptide. Human cortical neurons were exposed to test compound plus β-amyloid peptide by removing the culture medium and replacing it with MEM containing 50 μM β-amyloid peptide. Cultures were maintained for 2-3 days before neuronal survival was quantified using alamarBlue™.
The alamarBlue™ assay incorporates a fluorometric/colorimetric metabolic indicator (Alamar Biosciences, Inc. Sacramento, Calif., USA). Viable cells convert alamarBlue™ from an oxidized (non-fluorescent, blue) form to a reduced (fluorescent, red) form. Assays were preformed by replacing the culture media with a 10% alamarBlue™ solution in DMEM (rat cortical cultures) or MEM (human cortical cultures).

As for `COc1ccc2c(c1)c(CC1=NN(c3cccc(C(F)(F)F)c3)C(=O)C1)c(C)n2C(=O)c1ccc(Cl)cc1` [Example 25, 3-[1-(4-chlorobenzoyl)-5-methoxy-2-methyl-3-indolylmethyl]-1-(3-trifluoromethylphenyl)-5-pyrazolone], the “inhibition of the toxicity of β-amyloid peptide to human neuronal cells” value in the data set with human cortical neurons is listed as “at least 25%”. Further, in the data set with 293 751 SWE cells, the “cytotoxic effect on the 293 751 SWE cells” value is reported as “did not have a significant cytotoxic effect”. For the same molecule, the “reduction of β-amyloid peptide production as compared to control” value in data set [1] was “at least 20%”. In the data set on rat cortical neurons, the “inhibition of the toxicity of β-amyloid peptide to rat neuronal cells” value is “at least 10%”.
